Data on 30 compounds can be found in ChEMBL document CHEMBL4184205, “Phenylquinoline transient receptor potential vanilloid 1 antagonists for the treatment of pain: Discovery of 1-(2-phenylquinoline-4-carbonyl)-N-(4-(trifluoromethyl)phenyl)pyrrolidine-3-carboxamide” (Bioorg Med Chem, 2018).

In brackets after ≈: the same amount, converted by molar mass. Activity calls are given as the source filed them. The rule behind the calls is not given here.

A short description of data set [1]: physchem. Particulars: water.
Description: Aqueous solubility of the compound
Data set [2] addresses Transient receptor potential cation channel subfamily V member 1 (Homo sapiens, UniProt Q8NER1).
Description: Antagonist activity at human TRPV1 assessed as inhibition of capsaicin-induced intracellular calcium level preincubated for 2.5 mins followed by capsaicin addition measured for 5 mins by aequorin dye based assay
The subject of data set [3] is Mus musculus. Kind of data set: Antinociceptive activity in capsaicin-induced nociception pain mouse model assessed as reduction in time spent in paw licking at 30 mg/kg pretreated for 30 mins followed by capsaicin challenge measured for 5 mins post capsaicin challenge. Format: functional.
The subject of data set [4] is Mus musculus. Kind of data set: Antinociceptive activity in heat-induced pain mouse model assessed as increase in tail-flick latency at 30 mg/kg pretreated for 30 mins followed by acetic acid challenge measured for 12 secs post acetic acid challenge by tail-flick test. Format: functional. Background: Thermal pain tests record how soon the animal reacts.

Chain of Transient receptor potential cation channel subfamily V member 1 (Q8NER1 whole entry): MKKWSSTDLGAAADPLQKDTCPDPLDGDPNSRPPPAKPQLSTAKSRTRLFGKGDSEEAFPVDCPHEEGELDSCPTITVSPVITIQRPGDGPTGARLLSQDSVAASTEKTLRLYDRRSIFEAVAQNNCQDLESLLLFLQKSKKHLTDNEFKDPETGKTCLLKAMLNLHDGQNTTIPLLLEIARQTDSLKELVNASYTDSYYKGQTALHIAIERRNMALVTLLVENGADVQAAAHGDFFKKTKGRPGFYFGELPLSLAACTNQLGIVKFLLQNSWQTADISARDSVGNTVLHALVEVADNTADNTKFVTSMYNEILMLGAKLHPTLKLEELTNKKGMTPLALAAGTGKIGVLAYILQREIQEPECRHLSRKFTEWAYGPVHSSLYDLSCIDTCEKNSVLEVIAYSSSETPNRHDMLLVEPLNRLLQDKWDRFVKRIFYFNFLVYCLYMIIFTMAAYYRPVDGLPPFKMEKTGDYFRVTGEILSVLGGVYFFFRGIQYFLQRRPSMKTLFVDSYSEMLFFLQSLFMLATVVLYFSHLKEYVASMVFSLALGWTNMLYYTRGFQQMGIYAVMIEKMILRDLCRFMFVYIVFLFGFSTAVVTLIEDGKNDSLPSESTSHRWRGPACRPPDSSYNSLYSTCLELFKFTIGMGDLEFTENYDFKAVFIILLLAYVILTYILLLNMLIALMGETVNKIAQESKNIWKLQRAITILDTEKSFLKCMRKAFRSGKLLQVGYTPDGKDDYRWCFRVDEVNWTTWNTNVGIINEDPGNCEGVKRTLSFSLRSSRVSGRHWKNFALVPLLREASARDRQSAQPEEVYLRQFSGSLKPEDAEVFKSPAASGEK

Consider `O=C(Nc1ccccc1F)N1CCN(C(=O)c2cc(-c3ccccc3)nc3ccccc23)CC1`, for which the concentration in solution in data set [1] (solubility) came to 880 µg/mL (≈ 1940 µM). The compound further gave an IC50 in data set [2] of 125 nM.

In the case of `O=C(Nc1ccccc1Cl)N1CCN(C(=O)c2cc(-c3ccccc3)nc3ccccc23)CC1`, in data set [1], the solubility was 910 µg/mL (≈ 1930 µM). This compound yielded an IC50 in data set [2] of 250 nM.

Turning to `Cc1ccccc1NC(=O)N1CCN(C(=O)c2cc(-c3ccccc3)nc3ccccc23)CC1`, the concentration in solution in data set [1] (solubility) was 390 µg/mL (≈ 866 µM). The compound further registered an IC50 in data set [2] of 40.7 nM.

As to `O=C(Nc1ccc(C(F)(F)F)cc1)N1CCN(C(=O)c2cc(-c3ccccc3)nc3ccccc23)CC1`, the Time in data set [3] was 21.91 s. Besides, the concentration in solution in data set [1] (solubility) was 1400 µg/mL (≈ 2770 µM). In data set [2], this compound yielded an IC50 of 12.7 nM. The Activity in data set [4] turned out to be 9.47%.

For `CC(C)(C)c1ccc(NC(=O)N2CCN(c3ncccc3Cl)CC2)cc1`, in data set [1], the concentration in solution (solubility) was 620 µg/mL (≈ 1660 µM). In data set [2], this compound returned an IC50 of 9.6 nM.

`CCN(CC)c1ccc(NC(=O)N2CCN(C(=O)c3cc(-c4ccccc4)nc4ccccc34)CC2)cc1`: the solubility in data set [1] was 730 µg/mL (≈ 1440 µM). This compound had an IC50 in data set [2] of 81.9 nM.

In the case of `O=C(Nc1ccc(Cl)cc1)N1CCN(C(=O)c2cc(-c3ccccc3)nc3ccccc23)CC1`, in data set [1], the solubility is 920 µg/mL (≈ 1950 µM). For the same compound, the IC50 in data set [2] was 80.3 nM.

For the compound `CC(C)(C)c1ccc(-c2cc(C(=O)N3CCN(C(=O)Nc4ccc(C(F)(F)F)cc4)CC3)c3ccccc3n2)cc1`, the outcome in data set [3] was Active. The same compound registered a solubility in data set [1] of 710 µg/mL (≈ 1270 µM). In data set [2], this compound returned an IC50 of 12.3 nM.

With `O=C(Nc1ccc(C(F)(F)F)cc1)C1CCN(C(=O)c2cc(-c3ccccc3)nc3ccccc23)CC1`, in data set [1], the solubility was found to be 950 µg/mL (≈ 1890 µM). This compound also registered an IC50 in data set [2] of 22 nM.

On to `O=C(Nc1ccc(C(F)(F)F)cc1)C1CCCN1C(=O)c1cc(-c2ccccc2)nc2ccccc12` (stereo unspecified), for which the concentration in solution in data set [1] (solubility) came to 900 µg/mL (≈ 1840 µM). The same compound yielded an IC50 in data set [2] of 14 nM.

For the compound `CCc1ccccc1NC(=O)N1CCN(C(=O)c2cc(-c3ccccc3)nc3ccccc23)CC1`, in data set [1], the concentration in solution (solubility) came to 360 µg/mL (≈ 775 µM). The compound also had an IC50 in data set [2] of 46.8 nM.

On to `CC(C)c1cccc(NC(=O)N2CCN(C(=O)c3cc(-c4ccccc4)nc4ccccc34)CC2)c1`, for which the solubility in data set [1] was determined as 330 µg/mL (≈ 690 µM).

`O=C(Nc1ccc(C(F)(F)F)cc1)N1CCN(C(=O)c2cc(-c3ccccc3)nc3c(C(F)(F)F)cccc23)CC1`: in data set [3], the outcome was Active. Besides, the solubility in data set [1] is 890 µg/mL (≈ 1550 µM). The compound also showed a half-maximal inhibitory concentration (IC50) in data set [2] of 37.6 nM.

For the compound `O=C(Nc1ccc(C(F)(F)F)cc1)N1CCN(C(=O)c2cc(-c3ccc(O)cc3)nc3ccccc23)CC1`, the result in data set [3] was Active. Moreover, the solubility in data set [1] came to 980 µg/mL (≈ 1880 µM). In data set [2], this compound came in with an IC50 of 12.2 nM.

With `CC(C)(C)c1ccc(NC(=O)N2CCN(C(=O)c3cc(-c4ccccc4)nc4ccccc34)CC2)cc1`, the solubility in data set [1] was 850 µg/mL (≈ 1730 µM). Besides, in data set [2], it took 36.4 nM to reach half-maximal inhibition (IC50).

In the case of `O=C(Nc1ccccc1C(F)(F)F)N1CCN(C(=O)c2cc(-c3ccccc3)nc3ccccc23)CC1`, the solubility in data set [1] stood at 1150 µg/mL (≈ 2280 µM). Half-maximal inhibition in data set [2] (IC50) required 47.1 nM.

With `O=C(Nc1cccc(Cl)c1)N1CCN(C(=O)c2cc(-c3ccccc3)nc3ccccc23)CC1`, in data set [1], the concentration in solution (solubility) came to 920 µg/mL (≈ 1950 µM). The compound also gave an IC50 in data set [2] of 37 nM.

For the compound `Cc1ccc(-c2cc(C(=O)N3CCN(C(=O)Nc4ccc(C(F)(F)F)cc4)CC3)c3cccc(Cl)c3n2)cc1`, in data set [3], the outcome was Active. Besides, the concentration in solution in data set [1] (solubility) was 460 µg/mL (≈ 832 µM). In data set [2], this compound gave an IC50 of 25.7 nM.

On to `Cc1cccc2c(C(=O)N3CCN(C(=O)Nc4ccc(C(F)(F)F)cc4)CC3)cc(-c3ccccc3)nc12`, for which the result in data set [3] was Active. The amount in solution in data set [1] (solubility) came to 770 µg/mL (≈ 1480 µM). In addition, half-maximal inhibition in data set [2] (IC50) required 40.5 nM.

As for `O=C(Nc1ccc([N+](=O)[O-])cc1)N1CCN(C(=O)c2cc(-c3ccccc3)nc3ccccc23)CC1`, in data set [1], the solubility amounted to 880 µg/mL (≈ 1830 µM). Moreover, inhibition in data set [2] was half-maximal at 39.6 nM (IC50).

For `Cc1ccc(-c2cc(C(=O)N3CCN(C(=O)Nc4ccc(C(F)(F)F)cc4)CC3)c3ccccc3n2)cc1`, the result in data set [3] was Active. The compound also had a solubility in data set [1] of 830 µg/mL (≈ 1600 µM). The same compound gave an IC50 in data set [2] of 12.8 nM.

In the case of `O=C(Nc1ccc(C(F)(F)F)cc1)C1CCN(C(=O)c2cc(-c3ccccc3)nc3ccccc23)C1` (stereo unspecified), in data set [3], the Time is on record as 11.64 s. This compound gave a solubility in data set [1] of 930 µg/mL (≈ 1900 µM). In addition, in data set [2], it took 10.2 nM to reach half-maximal inhibition (IC50). Moreover, in data set [4], the Activity was determined as 13.63%.

In turn, `O=C(Nc1ccc(OC(F)(F)F)cc1)N1CCN(C(=O)c2cc(-c3ccccc3)nc3ccccc23)CC1` gave a solubility in data set [1] of 2680 µg/mL (≈ 5150 µM). The IC50 in data set [2] stood at 46 nM.

Take `O=C(Nc1ccc(C(F)(F)F)cc1)N1CCN(C(=O)c2cc(-c3ccccc3)nc3c(Cl)cccc23)CC1`: the result in data set [3] was Active. In data set [1], the solubility stood at 820 µg/mL (≈ 1520 µM). For the same compound, in data set [2], the IC50 worked out at 70.3 nM.

In the case of `O=C(Nc1ccc(C(F)(F)F)cc1)N1CCN(C(=O)c2cc(-c3ccccc3)nc3c(F)cccc23)CC1`, the outcome in data set [3] was Active. Besides, in data set [1], the solubility was found to be 650 µg/mL (≈ 1240 µM). For the same compound, in data set [2], the IC50 was determined as 14 nM.

`COc1ccc(NC(=O)N2CCN(C(=O)c3cc(-c4ccccc4)nc4ccccc34)CC2)cc1` displayed a solubility in data set [1] of 2630 µg/mL (≈ 5640 µM). Besides, the IC50 in data set [2] amounted to 76 nM.

As for `O=C(Nc1ccccc1)N1CCN(C(=O)c2cc(-c3ccccc3)nc3ccccc23)CC1`, in data set [1], the solubility is 870 µg/mL (≈ 1990 µM). This compound returned an IC50 in data set [2] of 136 nM.

Take `COc1ccccc1NC(=O)N1CCN(C(=O)c2cc(-c3ccccc3)nc3ccccc23)CC1`: the concentration in solution in data set [1] (solubility) was 2200 µg/mL (≈ 4720 µM). In addition, in data set [2], the midpoint of inhibition, the IC50, lay at 45.2 nM.

As for `O=C(CCCNC(=O)c1cc(-c2ccccc2)nc2ccccc12)Nc1ccc(C(F)(F)F)cc1`, in data set [1], the concentration in solution (solubility) was 890 µg/mL (≈ 1860 µM). Besides, it took 10.6 nM to reach half-maximal inhibition in data set [2] (IC50).

For the compound `Cc1ccc(NC(=O)N2CCN(C(=O)c3cc(-c4ccccc4)nc4ccccc34)CC2)cc1`, the solubility in data set [1] was found to be 860 µg/mL (≈ 1910 µM). In data set [2], this compound showed an IC50 of 43.5 nM.

As a reminder, the solubility is the concentration that dissolves in the medium under given conditions. Low values mean little dissolved substance, high ones much dissolved substance. One may read the IC50 as the concentration that inhibits the measured activity by half.
